{
  "source": "patent US20250154686A1",
  "about": "“COMPOUND LIBRARY” (CHUGAI SEIYAKU KABUSHIKI KAISHA, priority 2021, published 2025)",
  "target": "T1, Bcl-2 protein (Recombinant Human Bcl-2 Protein) (Homo sapiens, UniProt P10415)",
  "T1 construct": "purchased Novus Biologicals NBP2-34889",
  "T1 sequence (P10415 whole entry)": "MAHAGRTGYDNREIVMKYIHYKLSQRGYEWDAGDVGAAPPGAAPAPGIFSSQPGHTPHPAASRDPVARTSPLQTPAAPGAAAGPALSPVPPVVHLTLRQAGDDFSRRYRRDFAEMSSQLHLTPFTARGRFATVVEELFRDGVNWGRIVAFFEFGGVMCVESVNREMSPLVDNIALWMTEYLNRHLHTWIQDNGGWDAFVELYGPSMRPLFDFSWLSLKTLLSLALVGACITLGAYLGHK",
  "test": "AS-MS evaluation of binding of the Example 4 mixture library (1200 compounds/well) to Bcl-2, ASMS ratio (%)",
  "conditions": "AS-MS, Example 4 mixture library; for ASMS ratio (%) n = 1: Bcl-2, replicate n = 1; for ASMS ratio (%) n = 2: Bcl-2, replicate n = 2",
  "how_it_was_run": "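Affinity-selection MS: after spin-column size exclusion and organic extraction, LC/MS signals give an ASMS ratio (%), referenced to protein-free samples with and without column treatment. Binding step combined 20 μM human Bcl-2 with the 1200-compound pool at 20 nM per compound, 1 h, 23° C., dark, pH 7.4 Tris-HCl/NaCl/Tween-20/DTT.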",
  "data": [
    {"smiles": "CCOc1cncc(C#Cc2ccccc2C(=O)N2CCN(c3ccc(C(=O)NS(=O)(=O)c4ccc(NCCSc5ccccc5)c(C(F)(F)F)c4)cc3)CC2)c1", "note": "[Compound B2R030-01, 4-[4-[2-[2-(5-Ethoxypyridin-3-yl)ethynyl]benzoyl]piperazin-1-yl]-N-[4-(2-phenylsulfanylethylamino)-3-(trifluoromethyl)phenyl]sulfonylbenzamide]", "values": [
      {"measurement": "ASMS ratio (%) n = 1", "value": 0.0, "unit": "%"},
      {"measurement": "ASMS ratio (%) n = 2", "value": 4.8, "unit": "%"}
    ]},
    {"smiles": "CCOc1cccc(C#Cc2cncc(C(=O)N3CCN(c4ccc(C(=O)NS(=O)(=O)c5ccc(NCCSc6ccccc6)c(C(F)(F)F)c5)cc4)CC3)c2)c1", "note": "[Compound B2R031-01, 4-[4-[5-[2-(3-Ethoxyphenyl)ethynyl]pyridine-3-carbonyl]piperazin-1-yl]-N-[4-(2-phenylsulfanylethylamino)-3-(trifluoromethyl)phenyl]sulfonylbenzamide]", "values": [
      {"measurement": "ASMS ratio (%) n = 1", "value": 0.0, "unit": "%"},
      {"measurement": "ASMS ratio (%) n = 2", "value": 4.8, "unit": "%"}
    ]},
    {"smiles": "CCOc1cncc(C#Cc2cncc(C(=O)N3CCN(c4ccc(C(=O)NS(=O)(=O)c5ccc(NCCSc6ccccc6)c(C(F)(F)F)c5)cc4)CC3)c2)c1", "note": "[Compound B2R032-01, 4-[4-[5-[2-(5-Ethoxypyridin-3-yl)ethynyl]pyridine-3-carbonyl]piperazin-1-yl]-N-[4-(2-phenylsulfanylethylamino)-3-(trifluoromethyl)phenyl]sulfonylbenzamide]", "values": [
      {"measurement": "ASMS ratio (%) n = 1", "value": 6.4, "unit": "%"},
      {"measurement": "ASMS ratio (%) n = 2", "value": 0.0, "unit": "%"}
    ]},
    {"smiles": "CCOc1cccc(-c2ccccc2CCC(=O)N2CCN(c3ccc(C(=O)NS(=O)(=O)c4ccc(NCCSc5ccccc5)c(C(F)(F)F)c4)cc3)CC2)c1", "note": "[Compound B2R033-01, 4-[4-[3-[2-(3-Ethoxyphenyl)phenyl]propanoyl]piperazin-1-yl]-N-[4-(2-phenylsulfanylethylamino)-3-(trifluoromethyl)phenyl]sulfonylbenzamide]", "values": [
      {"measurement": "ASMS ratio (%) n = 1", "value": 3.6, "unit": "%"},
      {"measurement": "ASMS ratio (%) n = 2", "value": "−6.6", "unit": "%"}
    ]},
    {"smiles": "CCOc1cncc(-c2ccccc2CCC(=O)N2CCN(c3ccc(C(=O)NS(=O)(=O)c4ccc(NCCSc5ccccc5)c(C(F)(F)F)c4)cc3)CC2)c1", "note": "[Compound B2R034-01, 4-[4-[3-[2-(5-Ethoxypyridin-3-yl)phenyl]propanoyl]piperazin-1-yl]-N-[4-(2-phenylsulfanylethylamino)-3-(trifluoromethyl)phenyl]sulfonylbenzamide]", "values": [
      {"measurement": "ASMS ratio (%) n = 1", "value": 0.1, "unit": "%"},
      {"measurement": "ASMS ratio (%) n = 2", "value": "−1.3", "unit": "%"}
    ]},
    {"smiles": "CCOc1cccc(-c2ccc(C(=O)N3CCN(c4ccc(C(=O)NS(=O)(=O)c5ccc(NCCSc6ccccc6)c(C(F)(F)F)c5)cc4)CC3)c3ccccc23)c1", "note": "[Compound B2R035-01]", "values": [
      {"measurement": "ASMS ratio (%) n = 1", "value": 8.3, "unit": "%"},
      {"measurement": "ASMS ratio (%) n = 2", "value": 0.9, "unit": "%"}
    ]},
    {"smiles": "CCOc1cncc(-c2ccc(C(=O)N3CCN(c4ccc(C(=O)NS(=O)(=O)c5ccc(NCCSc6ccccc6)c(C(F)(F)F)c5)cc4)CC3)c3ccccc23)c1", "note": "[Compound B2R036-01, 4-[4-[4-(5-Ethoxypyridin-3-yl)naphthalene-1-carbonyl]piperazin-1-yl]-N-[4-(2-phenylsulfanylethylamino)-3-(trifluoromethyl)phenyl]sulfonylbenzamide]", "values": [
      {"measurement": "ASMS ratio (%) n = 1", "value": 3.2, "unit": "%"},
      {"measurement": "ASMS ratio (%) n = 2", "value": "−0.8", "unit": "%"}
    ]},
    {"smiles": "CCOc1cccc(-c2cc(C(=O)N3CCN(c4ccc(C(=O)NS(=O)(=O)c5ccc(NCCSc6ccccc6)c(C(F)(F)F)c5)cc4)CC3)cc(C(C)(C)C)c2)c1", "note": "[Compound B2R037-01, 4-[4-[3-tert-Butyl-5-(3-ethoxyphenyl)benzoyl]piperazin-1-yl]-N-[4-(2-phenylsulfanylethylamino)-3-(trifluoromethyl)phenyl]sulfonylbenzamide]", "values": [
      {"measurement": "ASMS ratio (%) n = 1", "value": 6.3, "unit": "%"},
      {"measurement": "ASMS ratio (%) n = 2", "value": "−7.0", "unit": "%"}
    ]},
    {"smiles": "CCOc1cncc(-c2cc(C(=O)N3CCN(c4ccc(C(=O)NS(=O)(=O)c5ccc(NCCSc6ccccc6)c(C(F)(F)F)c5)cc4)CC3)cc(C(C)(C)C)c2)c1", "note": "[Compound B2R038-01, 4-[4-[3-tert-Butyl-5-(5-ethoxypyridin-3-yl)benzoyl]piperazin-1-yl]-N-[4-(2-phenylsulfanylethylamino)-3-(trifluoromethyl)phenyl]sulfonylbenzamide]", "values": [
      {"measurement": "ASMS ratio (%) n = 1", "value": 7.1, "unit": "%"},
      {"measurement": "ASMS ratio (%) n = 2", "value": "−6.0", "unit": "%"}
    ]},
    {"smiles": "CCOc1cccc(-c2cc(C(=O)N3CCN(c4ccc(C(=O)NS(=O)(=O)c5ccc(NCCSc6ccccc6)c(C(F)(F)F)c5)cc4)CC3)cc(C(F)(F)F)c2)c1", "note": "[Compound B2R039-01, 4-[4-[3-(3-Ethoxyphenyl)-5-(trifluoromethyl)benzoyl]piperazin-1-yl]-N-[4-(2-phenylsulfanylethylamino)-3-(trifluoromethyl)phenyl]sulfonylbenzamide]", "values": [
      {"measurement": "ASMS ratio (%) n = 1", "value": 9.7, "unit": "%"},
      {"measurement": "ASMS ratio (%) n = 2", "value": "−4.8", "unit": "%"}
    ]},
    {"smiles": "CCOc1cncc(-c2cc(C(=O)N3CCN(c4ccc(C(=O)NS(=O)(=O)c5ccc(NCCSc6ccccc6)c(C(F)(F)F)c5)cc4)CC3)cc(C(F)(F)F)c2)c1", "note": "[Compound B2R040-01, 4-[4-[3-(5-Ethoxypyridin-3-yl)-5-(trifluoromethyl)benzoyl]piperazin-1-yl]-N-[4-(2-phenylsulfanylethylamino)-3-(trifluoromethyl)phenyl]sulfonylbenzamide]", "values": [
      {"measurement": "ASMS ratio (%) n = 1", "value": 2.6, "unit": "%"},
      {"measurement": "ASMS ratio (%) n = 2", "value": 0.2, "unit": "%"}
    ]},
    {"smiles": "CCOc1cccc(C#Cc2cc(C(=O)N3CCN(c4ccc(C(=O)NS(=O)(=O)c5ccc(NCCSc6ccccc6)c(C(F)(F)F)c5)cc4)CC3)cc(C(F)(F)F)c2)c1", "note": "[Compound B2R041-01, 4-[4-[3-[2-(3-Ethoxyphenyl)ethynyl]-5-(trifluoromethyl)benzoyl]piperazin-1-yl]-N-[4-(2-phenylsulfanylethylamino)-3-(trifluoromethyl)phenyl]sulfonylbenzamide]", "values": [
      {"measurement": "ASMS ratio (%) n = 1", "value": 18.0, "unit": "%"},
      {"measurement": "ASMS ratio (%) n = 2", "value": 0.0, "unit": "%"}
    ]},
    {"smiles": "CCOc1cncc(C#Cc2cc(C(=O)N3CCN(c4ccc(C(=O)NS(=O)(=O)c5ccc(NCCSc6ccccc6)c(C(F)(F)F)c5)cc4)CC3)cc(C(F)(F)F)c2)c1", "note": "[Compound B2R042-01, 4-[4-[3-[2-(5-Ethoxypyridin-3-yl)ethynyl]-5-(trifluoromethyl)benzoyl]piperazin-1-yl]-N-[4-(2-phenylsulfanylethylamino)-3-(trifluoromethyl)phenyl]sulfonylbenzamide]", "values": [
      {"measurement": "ASMS ratio (%) n = 1", "value": 3.4, "unit": "%"},
      {"measurement": "ASMS ratio (%) n = 2", "value": 6.0, "unit": "%"}
    ]},
    {"smiles": "CCOc1cccc(-c2cnn(-c3cc(C(=O)N4CCN(c5ccc(C(=O)NS(=O)(=O)c6ccc(NCCSc7ccccc7)c(C(F)(F)F)c6)cc5)CC4)cc(C(F)(F)F)c3)c2)c1", "note": "[Compound B2R043-01, 4-[4-[3-[4-(3-Ethoxyphenyl)pyrazol-1-yl]-5-(trifluoromethyl)benzoyl]piperazin-1-yl]-N-[4-(2-phenylsulfanylethylamino)-3-(trifluoromethyl)phenyl]sulfonylbenzamide]", "values": [
      {"measurement": "ASMS ratio (%) n = 1", "value": 3.4, "unit": "%"},
      {"measurement": "ASMS ratio (%) n = 2", "value": "−9.0", "unit": "%"}
    ]},
    {"smiles": "CCOc1cncc(-c2cnn(-c3cc(C(=O)N4CCN(c5ccc(C(=O)NS(=O)(=O)c6ccc(NCCSc7ccccc7)c(C(F)(F)F)c6)cc5)CC4)cc(C(F)(F)F)c3)c2)c1", "note": "[Compound B2R044-01, 4-[4-[3-[4-(5-Ethoxypyridin-3-yl)pyrazol-1-yl]-5-(trifluoromethyl)benzoyl]piperazin-1-yl]-N-[4-(2-phenylsulfanylethylamino)-3-(trifluoromethyl)phenyl]sulfonylbenzamide]", "values": [
      {"measurement": "ASMS ratio (%) n = 1", "value": "−3.7", "unit": "%"},
      {"measurement": "ASMS ratio (%) n = 2", "value": "−4.1", "unit": "%"}
    ]},
    {"smiles": "CCOc1cccc(-c2ccccc2CN2CCN(c3ccc(C(=O)NS(=O)(=O)c4ccc(NCCSc5ccccc5)c(C(F)(F)F)c4)cc3)CC2)c1", "note": "[Compound B2R045-01, 4-[4-[[2-(3-Ethoxyphenyl)phenyl]methyl]piperazin-1-yl]-N-[4-(2-phenylsulfanylethylamino)-3-(trifluoromethyl)phenyl]sulfonylbenzamide]", "values": [
      {"measurement": "ASMS ratio (%) n = 1", "value": 4.8, "unit": "%"},
      {"measurement": "ASMS ratio (%) n = 2", "value": "−3.4", "unit": "%"}
    ]},
    {"smiles": "CCOc1cncc(-c2ccccc2CN2CCN(c3ccc(C(=O)NS(=O)(=O)c4ccc(NCCSc5ccccc5)c(C(F)(F)F)c4)cc3)CC2)c1", "note": "[Compound B2R046-01, 4-[4-[[2-(5-ethoxypyridin-3-yl)phenyl]methyl]piperazin-1-yl]-N-[4-(2-phenylsulfanylethylamino)-3-(trifluoromethyl)phenyl]sulfonylbenzamide]", "values": [
      {"measurement": "ASMS ratio (%) n = 1", "value": "−0.2", "unit": "%"},
      {"measurement": "ASMS ratio (%) n = 2", "value": 0.0, "unit": "%"}
    ]},
    {"smiles": "CCOc1cccc(-c2ccc(CN3CCN(c4ccc(C(=O)NS(=O)(=O)c5ccc(NCCSc6ccccc6)c(C(F)(F)F)c5)cc4)CC3)cc2C)c1", "note": "[Compound B2R047-01, 4-[4-[[4-(3-Ethoxyphenyl)-3-methylphenyl]methyl]piperazin-1-yl]-N-[4-(2-phenylsulfanylethylamino)-3-(trifluoromethyl)phenyl]sulfonylbenzamide]", "values": [
      {"measurement": "ASMS ratio (%) n = 1", "value": 6.6, "unit": "%"},
      {"measurement": "ASMS ratio (%) n = 2", "value": "−7.8", "unit": "%"}
    ]},
    {"smiles": "CCOc1cncc(-c2ccc(CN3CCN(c4ccc(C(=O)NS(=O)(=O)c5ccc(NCCSc6ccccc6)c(C(F)(F)F)c5)cc4)CC3)cc2C)c1", "note": "[Compound B2R048-01]", "values": [
      {"measurement": "ASMS ratio (%) n = 1", "value": 9.2, "unit": "%"},
      {"measurement": "ASMS ratio (%) n = 2", "value": 7.5, "unit": "%"}
    ]},
    {"smiles": "CCOc1cccc(-c2ccc(CN3CCN(c4ccc(C(=O)NS(=O)(=O)c5ccc(NCCSc6ccccc6)c(C(F)(F)F)c5)cc4)CC3)c(CC)c2)c1", "note": "[Compound B2R049-01, 4-[4-[[4-(3-Ethoxyphenyl)-2-ethylphenyl]methyl]piperazin-1-yl]-N-[4-(2-phenylsulfanylethylamino)-3-(trifluoromethyl)phenyl]sulfonylbenzamide]", "values": [
      {"measurement": "ASMS ratio (%) n = 1", "value": 7.5, "unit": "%"},
      {"measurement": "ASMS ratio (%) n = 2", "value": "−5.5", "unit": "%"}
    ]},
    {"smiles": "CCOc1cncc(-c2ccc(CN3CCN(c4ccc(C(=O)NS(=O)(=O)c5ccc(NCCSc6ccccc6)c(C(F)(F)F)c5)cc4)CC3)c(CC)c2)c1", "note": "[Compound B2R050-01]", "values": [
      {"measurement": "ASMS ratio (%) n = 1", "value": 0.0, "unit": "%"},
      {"measurement": "ASMS ratio (%) n = 2", "value": 0.0, "unit": "%"}
    ]},
    {"smiles": "CCOc1cccc(-c2ccc(CN3CCN(c4ccc(C(=O)NS(=O)(=O)c5ccc(NCCSc6ccccc6)c(C(F)(F)F)c5)cc4)CC3)cc2F)c1", "note": "[Compound B2R051-01, 4-[4-[[4-(3-Ethoxyphenyl)-3-fluorophenyl]methyl]piperazin-1-yl]-N-[4-(2-phenylsulfanylethylamino)-3-(trifluoromethyl)phenyl]sulfonylbenzamide]", "values": [
      {"measurement": "ASMS ratio (%) n = 1", "value": 12.7, "unit": "%"},
      {"measurement": "ASMS ratio (%) n = 2", "value": "−1.8", "unit": "%"}
    ]}
  ]
}
